Data reported in ChEMBL document CHEMBL5046316, “Structure-Based Optimization of a Fragment-like TLR8 Binding Screening Hit to an In Vivo Efficacious TLR7/8 Antagonist” (ACS Med Chem Lett, 2022).

Columns and labels:
[1] = biological target: Cytochrome P450 3A4 (Homo sapiens, UniProt P08684); assay: Inhibition of CYP3A4 (unknown origin); format: ADME
[2] = MRT in Balb/c mouse at 10 mg/kg, po or 1 mg/kg, iv administered as cassette dose measured upto 24 hrs by LC/MS/MS analysis; format: ADME, organism-based; details: in vivo
[3] = biological target: T1, Toll-like receptor 9 (Homo sapiens, UniProt Q9NR96); assay: Antagonist activity at human TLR9 expressed in human whole blood assessed as inhibition of ODN2216 stimulated IFNalpha level preincubated for 30 mins followed by stimulation and measured after 20 hrs by AlphaLISA method; format: tissue-based
T1 sequence (Q9NR96 whole entry): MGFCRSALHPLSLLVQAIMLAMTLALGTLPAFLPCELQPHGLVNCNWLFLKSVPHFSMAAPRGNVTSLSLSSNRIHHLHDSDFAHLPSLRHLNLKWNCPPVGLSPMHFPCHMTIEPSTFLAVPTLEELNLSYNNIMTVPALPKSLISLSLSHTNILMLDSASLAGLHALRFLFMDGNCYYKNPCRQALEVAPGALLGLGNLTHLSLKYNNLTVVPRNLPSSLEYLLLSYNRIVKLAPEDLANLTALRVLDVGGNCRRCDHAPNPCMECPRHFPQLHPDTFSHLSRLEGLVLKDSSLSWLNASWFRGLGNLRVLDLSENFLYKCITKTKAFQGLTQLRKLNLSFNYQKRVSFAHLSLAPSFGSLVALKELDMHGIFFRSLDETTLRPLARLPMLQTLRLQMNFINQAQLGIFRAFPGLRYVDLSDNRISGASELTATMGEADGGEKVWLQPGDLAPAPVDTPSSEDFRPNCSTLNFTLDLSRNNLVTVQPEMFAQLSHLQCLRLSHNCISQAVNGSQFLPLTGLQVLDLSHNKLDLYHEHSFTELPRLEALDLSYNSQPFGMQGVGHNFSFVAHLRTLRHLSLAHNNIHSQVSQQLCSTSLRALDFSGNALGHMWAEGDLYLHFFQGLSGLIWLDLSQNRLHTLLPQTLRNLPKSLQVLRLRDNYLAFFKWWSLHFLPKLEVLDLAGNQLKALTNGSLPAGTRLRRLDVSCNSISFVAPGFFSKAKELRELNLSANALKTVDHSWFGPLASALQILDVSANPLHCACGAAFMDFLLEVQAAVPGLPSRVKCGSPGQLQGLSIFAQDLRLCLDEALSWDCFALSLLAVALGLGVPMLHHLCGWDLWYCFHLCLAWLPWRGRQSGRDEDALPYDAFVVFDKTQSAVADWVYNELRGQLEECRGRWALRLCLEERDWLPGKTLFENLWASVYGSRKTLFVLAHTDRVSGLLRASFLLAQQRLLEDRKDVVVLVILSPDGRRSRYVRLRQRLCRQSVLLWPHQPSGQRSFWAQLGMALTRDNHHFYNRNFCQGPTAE

[4] = Drug exposure in 129Sv mouse blood at 3 mg/kg, po by LC-MS/MS analysis; format: ADME, organism-based; details: in vivo, read-out: Drug uptake
[5] = biological target: T1, Toll-like receptor 9; assay: Antagonist activity at human TLR9 expressed in human PBMC cells assessed as inhibition of ODN2216 stimulated IFNalpha level preincubated for 30 mins followed by stimulation and measured after 20 hrs by AlphaLISA method; format: cell-based
[6] = Clearance in Balb/c mouse at 10 mg/kg, po or 1mg/kg, iv administered as cassette dose measured upto 24 hrs by LC/MS/MS analysis; format: ADME, organism-based; details: in vivo
[7] = Drug exposure in 129Sv mouse blood at 0.3 mg/kg, po by LC-MS/MS analysis; format: ADME, organism-based; details: in vivo, read-out: Drug uptake
[8] = Drug exposure in 129Sv mouse blood at 0.1 mg/kg, po by LC-MS/MS analysis; format: ADME, organism-based; details: in vivo, read-out: Drug uptake
[9] = biological target: T2, Toll-like receptor 7 (Homo sapiens, UniProt Q9NYK1); assay: Antagonist activity at human TLR7 expressed in human PBMC cells assessed as inhibition of ssRNA stimulated IFNalpha level preincubated for 30 mins followed by stimulation and measured after 20 hrs by AlphaLISA method; format: cell-based
T2 sequence (Q9NYK1 whole entry): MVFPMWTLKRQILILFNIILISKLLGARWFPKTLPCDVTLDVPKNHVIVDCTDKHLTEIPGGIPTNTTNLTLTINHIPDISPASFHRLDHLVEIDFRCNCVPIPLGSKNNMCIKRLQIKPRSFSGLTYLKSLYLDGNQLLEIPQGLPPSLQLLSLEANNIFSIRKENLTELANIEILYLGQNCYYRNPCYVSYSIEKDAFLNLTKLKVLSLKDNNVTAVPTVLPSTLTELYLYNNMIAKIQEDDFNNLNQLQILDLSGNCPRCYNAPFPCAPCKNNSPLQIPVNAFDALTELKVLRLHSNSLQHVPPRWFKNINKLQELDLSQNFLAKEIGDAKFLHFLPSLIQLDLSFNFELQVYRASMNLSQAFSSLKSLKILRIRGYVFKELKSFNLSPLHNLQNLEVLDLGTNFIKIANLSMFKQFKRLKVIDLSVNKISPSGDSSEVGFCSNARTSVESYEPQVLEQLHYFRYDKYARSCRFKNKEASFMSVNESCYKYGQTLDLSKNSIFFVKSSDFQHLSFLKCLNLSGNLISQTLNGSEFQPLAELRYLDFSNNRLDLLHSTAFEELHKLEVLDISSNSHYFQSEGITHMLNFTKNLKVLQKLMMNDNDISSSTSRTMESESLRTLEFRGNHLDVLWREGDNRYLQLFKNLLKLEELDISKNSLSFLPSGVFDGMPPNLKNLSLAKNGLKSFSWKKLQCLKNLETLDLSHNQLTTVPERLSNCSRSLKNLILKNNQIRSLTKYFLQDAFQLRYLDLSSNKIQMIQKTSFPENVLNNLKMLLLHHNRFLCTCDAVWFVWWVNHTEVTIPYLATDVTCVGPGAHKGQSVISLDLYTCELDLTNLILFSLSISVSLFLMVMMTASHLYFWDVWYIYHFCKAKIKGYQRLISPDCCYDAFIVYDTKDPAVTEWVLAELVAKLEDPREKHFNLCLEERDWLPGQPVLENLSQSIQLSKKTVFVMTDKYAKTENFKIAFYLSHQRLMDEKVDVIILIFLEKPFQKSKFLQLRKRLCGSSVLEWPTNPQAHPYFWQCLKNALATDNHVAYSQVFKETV

[10] = Oral bioavailability in Balb/c mouse at 10 mg/kg administered as cassette dose measured upto 24 hrs by LC/MS/MS analysis; format: ADME, organism-based; details: in vivo
[11] = biological target: Voltage-gated inwardly rectifying potassium channel KCNH2 (Homo sapiens, UniProt Q12809); assay: Inhibition of human ERG; format: toxicity
[12] = Drug exposure in 129Sv mouse blood at 1 mg/kg, po by LC-MS/MS analysis; format: ADME, organism-based; details: in vivo, read-out: Drug uptake
[13] = biological target: Toll-like receptor 4 (Homo sapiens, UniProt O00206); assay: Antagonist activity at human TLR4 expressed in human whole blood assessed as inhibition of LPS stimulated TNF level preincubated for 30 mins followed by stimulation and measured after 20 hrs by multiplate reader assay; format: tissue-based
Sequence of Toll-like receptor 4 (O00206 whole entry): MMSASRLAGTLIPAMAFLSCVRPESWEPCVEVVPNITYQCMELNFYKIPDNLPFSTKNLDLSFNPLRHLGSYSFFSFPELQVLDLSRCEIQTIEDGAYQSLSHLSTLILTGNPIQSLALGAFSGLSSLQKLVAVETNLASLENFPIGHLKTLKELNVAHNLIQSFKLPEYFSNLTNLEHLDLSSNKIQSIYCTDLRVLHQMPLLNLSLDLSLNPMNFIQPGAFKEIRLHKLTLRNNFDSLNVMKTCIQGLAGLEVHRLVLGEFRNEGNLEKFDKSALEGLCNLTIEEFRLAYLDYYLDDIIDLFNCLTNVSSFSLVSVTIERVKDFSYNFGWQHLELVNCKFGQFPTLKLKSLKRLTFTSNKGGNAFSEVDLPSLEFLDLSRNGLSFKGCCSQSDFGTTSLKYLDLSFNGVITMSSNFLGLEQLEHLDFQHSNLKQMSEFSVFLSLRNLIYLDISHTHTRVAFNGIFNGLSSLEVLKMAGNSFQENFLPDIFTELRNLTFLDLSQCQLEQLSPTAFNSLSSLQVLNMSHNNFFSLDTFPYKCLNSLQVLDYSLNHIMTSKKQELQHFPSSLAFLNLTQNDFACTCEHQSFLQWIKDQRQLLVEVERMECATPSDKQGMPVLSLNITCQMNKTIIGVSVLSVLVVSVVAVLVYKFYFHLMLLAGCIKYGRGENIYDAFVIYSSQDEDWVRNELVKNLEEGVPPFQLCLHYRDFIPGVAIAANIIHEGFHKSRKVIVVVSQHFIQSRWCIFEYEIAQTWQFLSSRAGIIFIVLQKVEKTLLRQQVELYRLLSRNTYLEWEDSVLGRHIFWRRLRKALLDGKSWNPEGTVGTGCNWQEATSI

Sequence of Voltage-gated inwardly rectifying potassium channel KCNH2 (Q12809 whole entry): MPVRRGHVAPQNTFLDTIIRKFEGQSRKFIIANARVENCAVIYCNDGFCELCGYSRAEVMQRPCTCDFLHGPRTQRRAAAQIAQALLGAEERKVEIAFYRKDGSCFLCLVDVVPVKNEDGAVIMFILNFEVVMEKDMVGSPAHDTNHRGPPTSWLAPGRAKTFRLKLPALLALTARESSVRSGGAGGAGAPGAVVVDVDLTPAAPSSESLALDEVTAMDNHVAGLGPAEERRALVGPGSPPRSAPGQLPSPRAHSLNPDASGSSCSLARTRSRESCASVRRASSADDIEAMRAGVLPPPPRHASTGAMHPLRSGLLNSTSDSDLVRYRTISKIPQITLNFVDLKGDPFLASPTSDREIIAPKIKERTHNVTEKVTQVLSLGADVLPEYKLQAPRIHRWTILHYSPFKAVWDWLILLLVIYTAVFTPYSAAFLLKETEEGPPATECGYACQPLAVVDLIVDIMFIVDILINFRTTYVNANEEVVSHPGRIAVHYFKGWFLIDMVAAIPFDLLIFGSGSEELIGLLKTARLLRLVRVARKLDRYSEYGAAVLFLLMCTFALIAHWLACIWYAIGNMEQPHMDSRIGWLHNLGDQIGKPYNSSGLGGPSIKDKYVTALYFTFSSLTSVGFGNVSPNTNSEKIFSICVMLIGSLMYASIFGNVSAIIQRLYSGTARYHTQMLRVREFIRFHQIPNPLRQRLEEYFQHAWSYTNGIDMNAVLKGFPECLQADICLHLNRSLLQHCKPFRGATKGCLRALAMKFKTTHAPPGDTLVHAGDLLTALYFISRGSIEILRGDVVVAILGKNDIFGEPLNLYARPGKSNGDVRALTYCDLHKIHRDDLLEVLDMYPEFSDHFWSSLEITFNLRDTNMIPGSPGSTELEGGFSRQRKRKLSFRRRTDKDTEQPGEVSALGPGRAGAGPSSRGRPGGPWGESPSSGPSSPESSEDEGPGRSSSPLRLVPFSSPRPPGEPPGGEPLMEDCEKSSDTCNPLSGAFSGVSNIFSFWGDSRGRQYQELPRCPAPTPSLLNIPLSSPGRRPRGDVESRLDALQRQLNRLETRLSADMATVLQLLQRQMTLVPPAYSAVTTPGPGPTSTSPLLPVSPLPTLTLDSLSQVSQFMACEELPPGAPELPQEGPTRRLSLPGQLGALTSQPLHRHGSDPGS
Sequence of Cytochrome P450 3A4 (P08684 whole entry): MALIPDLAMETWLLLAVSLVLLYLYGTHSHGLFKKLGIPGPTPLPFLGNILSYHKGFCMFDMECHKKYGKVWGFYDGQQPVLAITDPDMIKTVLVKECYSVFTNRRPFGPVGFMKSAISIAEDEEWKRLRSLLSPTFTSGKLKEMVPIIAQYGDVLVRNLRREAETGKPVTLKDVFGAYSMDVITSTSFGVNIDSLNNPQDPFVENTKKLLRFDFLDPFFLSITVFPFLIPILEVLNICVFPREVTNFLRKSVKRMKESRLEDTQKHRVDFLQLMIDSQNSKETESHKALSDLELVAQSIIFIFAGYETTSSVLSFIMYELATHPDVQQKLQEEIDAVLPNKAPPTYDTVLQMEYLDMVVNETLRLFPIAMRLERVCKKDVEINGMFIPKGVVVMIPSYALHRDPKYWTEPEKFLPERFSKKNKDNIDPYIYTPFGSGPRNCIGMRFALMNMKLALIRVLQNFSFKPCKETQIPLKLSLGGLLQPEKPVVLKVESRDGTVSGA

For Cc1cc(-c2cc3[nH]nc(N[C@@H]4CCNC[C@H]4F)c3cc2C2CC2)cc(C)n1, which IC50 [1] is on record?
Its IC50 is over 25 µM.

What about the MRT [2] of the same molecule?
Its MRT is 2.5 h.

What about the IC50 [3] of the same molecule?
Its IC50 is 0.39 µM.

What about the concentration [4] of the same molecule?
Its concentration is 110 nM.

And the IC50 [5]?
Its IC50 is over 0.57 µM.

What about the clearance [6] of the same molecule?
Its clearance is 55 mL/min/kg.

What about the concentration [7] of the same molecule?
The concentration was 1.3 nM.

What about the concentration [8] of the same molecule?
The concentration was 0.4 nM.

What about the IC50 [9] of the same molecule?
The IC50 was 0.007 µM.

And the bioavailability [10]?
The bioavailability was 38%.

And the IC50 [11]?
Its IC50 is over 30 µM.

And the concentration [12]?
The concentration was 8 nM.

And the IC50 [13]?
The IC50 was over 10 µM.
